Results from ChEMBL document CHEMBL1201862, “PubChem BioAssay data set” (2004).
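Dose response: 5 concentrations. Exposure: 48 h. Format: 96-well plates. Endpoint: linear interpolation; highest concentration if not reached. Abbreviation: GI50, concentration required for 50% inhibition of growth.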 Activity calls are given as the source filed them. Rule as the data show it: active = GI50 up to about 1.1 µM and inactive = higher.

Experiments:
Assay in all cases: inhibition of tumour cell growth, NCI panel, 48 h
786-0 = system: 786-0
SK-MEL-5 = system: SK-MEL-5
Hs-578T = system: Hs-578T
TK-10 = system: TK-10
LOX IMVI = system: LOX IMVI
SR = system: SR
SNB-19 = system: SNB-19
DU-145 = system: DU-145
COLO 205 = system: COLO 205
MCF7 = system: MCF7
RXF 393 = system: RXF 393
HCT-116 = system: HCT-116
SW-620 = system: SW-620
UACC-62 = system: UACC-62
NCI-H23 = system: NCI-H23
SK-OV-3 = system: SK-OV-3
SNB-75 = system: SNB-75
NCI/ADR-RES = system: NCI/ADR-RES
NCI-H460 = system: NCI-H460
UACC-257 = system: UACC-257

SMILES	GI50 (786-0)	GI50 (SK-MEL-5)	GI50 (Hs-578T)	GI50 (TK-10)	GI50 (LOX IMVI)	GI50 (SR)	GI50 (SNB-19)	GI50 (DU-145)	GI50 (COLO 205)	GI50 (MCF7)	GI50 (RXF 393)	GI50 (HCT-116)	GI50 (SW-620)	GI50 (UACC-62)	GI50 (NCI-H23)	GI50 (SK-OV-3)	GI50 (SNB-75)	GI50 (NCI/ADR-RES)	GI50 (NCI-H460)	GI50 (UACC-257)
COC(=O)c1c(C)ccc2c(O)c3c(cc12)C(=O)c1c2c(cc(O)c1C3=O)C1(C)OC(C)(O2)C(O)C(N(C)C)C1O (stereo not given)	0.767 µM (active)	8.38 µM (inactive)	1.86 µM (inactive)	1.4 µM (inactive)	1.24 µM (inactive)	0.294 µM (active)	1.35 µM (inactive)	1.43 µM (inactive)	1.82 µM (inactive)	1.28 µM (inactive)	1.22 µM (inactive)	0.643 µM (active)	0.869 µM (active)	1.66 µM (inactive)	1.56 µM (inactive)	3.33 µM (inactive)	1.61 µM (inactive)	2.79 µM (inactive)	0.681 µM (active)	1.65 µM (inactive)
CCNC(=O)OCC1C2=C(C(=O)C(C)=C(N)C2=O)N2CC3C(N3C)C12OC (stereo not given)	10.1 µM (inactive)	12.8 µM (inactive)	> 100 µM (inactive)	60.1 µM (inactive)	13.7 µM (inactive)	1.48 µM (inactive)	24 µM (inactive)	4.1 µM (inactive)	27.6 µM (inactive)	4.95 µM (inactive)	32.5 µM (inactive)	14.6 µM (inactive)	9.93 µM (inactive)	11.9 µM (inactive)	1.4 µM (inactive)	27.4 µM (inactive)	21.7 µM (inactive)	> 75.5 µM (inactive)	0.18 µM (active)	62.4 µM (inactive)
COc1ccc2c(c1O)C13CCN(C)C(C2)C1CCC1(C3)OCCO1 (stereo not given)	> 100 µM (inactive)	> 100 µM (inactive)	> 100 µM (inactive)	> 100 µM (inactive)	> 100 µM (inactive)	> 100 µM (inactive)	> 100 µM (inactive)	> 100 µM (inactive)	> 100 µM (inactive)	> 100 µM (inactive)	> 100 µM (inactive)	> 100 µM (inactive)	> 100 µM (inactive)	> 100 µM (inactive)	> 100 µM (inactive)	> 100 µM (inactive)	> 100 µM (inactive)	> 100 µM (inactive)	> 100 µM (inactive)	> 100 µM (inactive)
Cn1c2ccccc2c2c(-c3ccccc3)cc3c(c21)C(=O)C=CC3=O	1.57 µM (inactive)	2.96 µM (inactive)	3.54 µM (inactive)	1.92 µM (inactive)	3.26 µM (inactive)	0.195 µM (active)	4.05 µM (inactive)	5.4 µM (inactive)	0.632 µM (active)	1.72 µM (inactive)	2.2 µM (inactive)	1.45 µM (inactive)	0.421 µM (active)	1.73 µM (inactive)	1.94 µM (inactive)	> 10 µM (inactive)	> 5.66 µM (inactive)	3.33 µM (inactive)	6.07 µM (inactive)	2.11 µM (inactive)
Nc1nc(Nc2ccc(Cl)cc2)sc1C(=O)c1c[nH]c2ccccc12	4.66 µM (inactive)	12 µM (inactive)	21.6 µM (inactive)	13 µM (inactive)	18.2 µM (inactive)	5.74 µM (inactive)	14.3 µM (inactive)	14.2 µM (inactive)	3.8 µM (inactive)	13.8 µM (inactive)	9.27 µM (inactive)	11.1 µM (inactive)	15.7 µM (inactive)	14.9 µM (inactive)	13.4 µM (inactive)	21.4 µM (inactive)	5.66 µM (inactive)	12.4 µM (inactive)	6.92 µM (inactive)	7.26 µM (inactive)
COc1cc(C2SC(=N)Nc3c2c(C)nn3C(=O)c2ccccc2O)cc(OC)c1OC (stereo not given)	9.14 µM (inactive)	3.78 µM (inactive)	3.57 µM (inactive)	> 10 µM (inactive)	5.16 µM (inactive)	9.35 µM (inactive)	8.71 µM (inactive)	5.12 µM (inactive)	> 10 µM (inactive)	> 10 µM (inactive)	8.51 µM (inactive)	1.59 µM (inactive)	> 10 µM (inactive)	2.72 µM (inactive)	8.3 µM (inactive)	1.66 µM (inactive)	1.87 µM (inactive)	4.38 µM (inactive)	7.41 µM (inactive)	> 10 µM (inactive)
Oc1ccc2ccccc2c1/C=N/Cc1c(O)ccc2ccccc12	47.2 µM (inactive)	71.9 µM (inactive)	69 µM (inactive)	70.5 µM (inactive)	48.1 µM (inactive)	27.2 µM (inactive)	36.9 µM (inactive)	41.4 µM (inactive)	> 100 µM (inactive)	48.2 µM (inactive)	1.39 µM (inactive)	28.3 µM (inactive)	52.4 µM (inactive)	45.1 µM (inactive)	42.7 µM (inactive)	> 100 µM (inactive)	37.9 µM (inactive)	33.8 µM (inactive)	28.1 µM (inactive)	81.5 µM (inactive)
CN(NC(=O)/C(=C/c1ccc(O)cc1)NC(=O)c1ccccc1)c1ccnc2cc(Cl)ccc12	15.9 µM (inactive)	21 µM (inactive)	19.2 µM (inactive)	15.5 µM (inactive)	18.8 µM (inactive)	3.08 µM (inactive)	17.2 µM (inactive)	21.9 µM (inactive)	17.5 µM (inactive)	13.6 µM (inactive)	14.6 µM (inactive)	18.2 µM (inactive)	20.8 µM (inactive)	17.1 µM (inactive)	> 10 µM (inactive)	19 µM (inactive)	8.85 µM (inactive)	14.5 µM (inactive)	15.6 µM (inactive)	17.8 µM (inactive)
c1cncc(CNc2ncn[nH]2)c1	> 100 µM (inactive)	> 100 µM (inactive)	> 100 µM (inactive)	> 100 µM (inactive)	> 100 µM (inactive)	> 100 µM (inactive)	> 100 µM (inactive)	> 100 µM (inactive)	> 100 µM (inactive)	> 100 µM (inactive)	> 100 µM (inactive)	> 100 µM (inactive)	> 100 µM (inactive)	> 100 µM (inactive)	> 100 µM (inactive)	> 100 µM (inactive)	> 100 µM (inactive)	> 100 µM (inactive)	> 100 µM (inactive)	> 100 µM (inactive)
C=C1CC(c2ccc(OCCCN3C(=O)c4ccccc4C3=O)cc2)OC1=O (stereo not given)	1.95 µM (inactive)	6.64 µM (inactive)	5.31 µM (inactive)	4.94 µM (inactive)	1.36 µM (inactive)	3.05 µM (inactive)	7.38 µM (inactive)	4.75 µM (inactive)	1.91 µM (inactive)	1.42 µM (inactive)	1.99 µM (inactive)	1.8 µM (inactive)	1.48 µM (inactive)	1.97 µM (inactive)	2.35 µM (inactive)	14.4 µM (inactive)	10.6 µM (inactive)	8.09 µM (inactive)	2.07 µM (inactive)	2.19 µM (inactive)
COc1ccc(-c2[nH]c3c4c(nc5c(c24)C(=O)CC(C)(C)C5)CC(C)(C)C3)cc1	32.2 µM (inactive)	63.1 µM (inactive)	93.1 µM (inactive)	> 100 µM (inactive)	68.7 µM (inactive)	13.2 µM (inactive)	> 100 µM (inactive)	> 100 µM (inactive)	63.8 µM (inactive)	58.3 µM (inactive)	73.5 µM (inactive)	70 µM (inactive)	> 100 µM (inactive)	> 100 µM (inactive)	76.2 µM (inactive)	> 100 µM (inactive)	34.4 µM (inactive)	48.8 µM (inactive)	72.3 µM (inactive)	68.5 µM (inactive)
